US20050009813A1 (priority 2001, published 2005)
Several values for one entry are separate records, joined by “and”; a condition that tells them apart may be missing. Identical values can stand only once. Counter-ions that a name gives are not always drawn.

Key:
[1] = system: behavioural despair (acquired immobility); test: Forced Swimming Test (Porsolt Swimming Test) on rats; type: in vivo, rat (Sprague Dawley); conditions: for Acquired Immobility (group mean value in minutes ± standard dev.): three administrations, 5 min test; for Acquired Immobility (group mean value in minutes ± standard dev.) / Change relative to control group (acquired immobility): rat, SD strain
Experimental: To verify whether this MAO-A-inhibitory action in vivo is relevant, deoxypeganine was tested in the “Forced Swimming Test” on rats (R. D. Porsolt et al., Nature 1977; 266(5604): 730-732). […] The time spent with attempts at escape until the animals fall into this psychomotorical inactivation (considered to be a surrogate for depression) is measured; prolonged activity corresponds to antidepressive action.
In the concrete case, […], about 6 weeks old (strain Sprague Dawley); acquired from Charles River UK Ltd.) were divided into 7 groups with 10 animals each. On the first day, after termination of the habituation phase, each animal was placed for 10 minutes in a cylindrical vessel filled about 15 cm high with 25°-warm water; this was followed, after one hour, 19 hours, and 23 hours, by three oral administrations of (depending on the group) either negative control (water), 15 mg/kg positive control (imipramine.HCl), or deoxypeganine.HCl in dosages of 1.0, 2.5, 7.5, 15.0 or 22.5 mg/kg of bodyweight. The volume, administered with the aid of a gastric tube, was in each case 5 ml/kg of bodyweight. One hour after the third of these treatments, each animal was again placed in the vessel for exactly 5 minutes and the time spent in minimal mobility was measured.

Monoamino oxidase B = target: T1, Monoamino oxidase B (Rattus norvegicus, UniProt P19643); test: Inhibition of monoamino oxidase B
T1 sequence (P19643 1-520): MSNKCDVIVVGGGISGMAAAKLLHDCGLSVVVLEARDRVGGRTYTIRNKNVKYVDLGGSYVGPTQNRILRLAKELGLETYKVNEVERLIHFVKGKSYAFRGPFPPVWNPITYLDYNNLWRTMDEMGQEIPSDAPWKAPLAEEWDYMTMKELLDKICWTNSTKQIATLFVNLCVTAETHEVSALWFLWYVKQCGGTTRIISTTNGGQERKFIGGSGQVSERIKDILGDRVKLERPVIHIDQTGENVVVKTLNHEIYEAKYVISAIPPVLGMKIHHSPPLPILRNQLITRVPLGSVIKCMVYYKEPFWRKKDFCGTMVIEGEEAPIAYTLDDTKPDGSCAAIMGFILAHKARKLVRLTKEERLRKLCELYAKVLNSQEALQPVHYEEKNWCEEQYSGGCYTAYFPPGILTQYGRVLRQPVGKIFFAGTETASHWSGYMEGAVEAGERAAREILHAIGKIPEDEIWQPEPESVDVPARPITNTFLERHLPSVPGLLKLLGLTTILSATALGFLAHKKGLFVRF

psychomotoric activation = test: Open Field Paradigma; type: in vivo, Sprague-Dawley rats; conditions: treatment for 2 weeks, daily doses of 2.5 to 22.5 mg/kg
Text: Since such results can in principle also be obtained by psychomotorically activating substances which have no anti-depressive action, the effect of deoxypeganine was also examined, with the same dose range, in the so-called Open Field Paradigma. Here one makes use of the fact that it is stressful for rats to stay in an open, bright area, and therefore such situations are avoided by the rats if possible.

[2] = target: T2, monoamino oxidase A from rat brain (Rattus norvegicus, UniProt P21396); test: Inhibition of monoamino oxidase A from rat brain, [3H]serotonine substrate (Medvedev et al.); type: biochemical, rat (Wistar strain); conditions: rat brain MAO-A; 95 μM [3H]serotonine; 1% DMSO in 20 mM potassium dihydrogenphosphate buffer pH 7.4; 10 nM to 10 μM; read-out: semi-maximal inhibitory action (IC50), monoamino oxidase A
T2 sequence (P21396 1-526): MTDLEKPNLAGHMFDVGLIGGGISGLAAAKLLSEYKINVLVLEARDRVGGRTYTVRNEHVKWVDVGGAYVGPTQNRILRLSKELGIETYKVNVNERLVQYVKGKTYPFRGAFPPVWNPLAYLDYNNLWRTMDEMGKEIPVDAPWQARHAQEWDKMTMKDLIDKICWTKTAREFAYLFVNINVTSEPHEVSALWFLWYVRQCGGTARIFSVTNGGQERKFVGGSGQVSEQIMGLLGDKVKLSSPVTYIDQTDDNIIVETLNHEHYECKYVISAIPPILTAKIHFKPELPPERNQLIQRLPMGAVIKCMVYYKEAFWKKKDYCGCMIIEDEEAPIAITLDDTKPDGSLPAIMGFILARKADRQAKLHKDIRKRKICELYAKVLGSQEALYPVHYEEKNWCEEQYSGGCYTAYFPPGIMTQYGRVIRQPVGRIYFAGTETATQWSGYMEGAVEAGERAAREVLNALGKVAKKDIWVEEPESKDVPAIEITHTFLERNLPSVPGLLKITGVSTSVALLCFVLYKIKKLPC
Experimental: The inhibitory action of deoxypeganine in respect of monoamino oxidase A from rat brain (Wistar strain) was measured in the concentration range of from 10 nM to 10 μM according to the method described by Medvedev et al. (Biochem Pharmacol 1994; 47(2): 303-308) and compared with clorogyline as the positive control, whereby in both cases 95 μM [^3H]serotonine in a solution of 1% dimethylsulfoxide in 20 mM of potassium dihydrogenphosphate buffer pH 7.4 served as substrate.

[3] = system: cholinergic memory deficits; test: Compensation of cholinergic memory deficits in rats with partially destroyed central cholinergic pathways; type: in vivo
Text: It can be inferred therefrom that the effect observable in the swimming test reaches its maximum at a fraction of the dose necessary for maximal activation of the cholinergic system, which according to the state of the art could not be reckoned with.

## Cl.c1ccc2c(c1)CN1CCCC1=N2 [deoxypeganine hydrochloride]
[1]; 1.0 mg/kg p.o.
  Acquired Immobility (group mean value in minutes ± standard dev.): 3.46 ± 0.83 min
  Change relative to control group (acquired immobility): +0.3%
[1]; 2.5 mg/kg p.o.
  Acquired Immobility (group mean value in minutes ± standard dev.): 2.80 ± 1.02 min
  Change relative to control group (acquired immobility): −18.8%
[1]; 7.5 mg/kg p.o., hydrochloride
  Change relative to control group (acquired immobility): −47.2% and −41.4%
[1]; 15 mg/kg p.o.
  Change relative to control group (acquired immobility): −44.1%
[1]; 22.5 mg/kg p.o.
  Change relative to control group (acquired immobility): −43.8%

## c1ccc2c(c1)CN1CCCC1=N2 [deoxypeganine, 1,2,3,9-tetrahydropyrrolo[2,1-b]quinazoline]
Monoamino oxidase B; in vitro
  inhibition of Type B enzyme (MAO-B), in words: not significantly inhibited
Monoamino oxidase B; read-out: inhibition of monoamino oxidase B
  inhibition at 10 µM: 15 to 20%
[1]; 2.5 mg/kg
  effectiveness in forced swimming test, in words: only partially effective
[1]; dose of 1 mg/kg
  effectiveness in forced swimming test, in words: not yet effective
[1]; p.o., comparable to the antidepressant imipramine
  dose of maximal action in the Porsolt test: 7.5 mg/kg
Psychomotoric activation
  psychomotoric activation in open field, in words: no indication of psychomotoric activation
[2]
  IC50: 1490 nM
[3]; 22.5 mg/kg oral
  compensation of cholinergic memory deficits, in words: had not yet reached its maximum value
[3]; oral dose of 7.5 mg/kg
  compensation of cholinergic memory deficits, in words: not yet statistically significant

## CN(C)CCCN1c2ccccc2CCc2ccccc21 [imipramine HCl, reference compound]
[1]; 15 mg/kg p.o., HCl
  Change relative to control group (acquired immobility): −56.5% and −58.9%
